How the values were obtained:
Assay in all cases: relative viability (nuclei count vs DMSO), 5 days (fraction); higher = more cells survive
Tosedostat + AZD7762 = compound: CC(C)C[C@@H](C(=O)N[C@H](C(=O)OC1CCCC1)c1ccccc1)[C@H](O)C(=O)NO [Tosedostat] + NC(=O)Nc1cc(-c2cccc(F)c2)sc1C(=O)N[C@H]1CCCNC1 [AZD7762] (partner 0.2 µM)
In short: (§1)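 After 5 days of treatment, lung cancer cells in 1536-well plates were fixed and stained in a single step (final 0.05% Triton X-100, 1% formaldehyde, 1 ug/ml Hoechst) and their nuclei counted on 4× images. Treatment had been applied by pin tool the day after seeding as one drug alone or as a fixed anchor-drug dose with five library-drug doses (not always all listed) in √10 steps. Relative viability is the nuclei count of treated wells divided by that of vehicle wells, and values are medians of duplicate plates.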

[1] = compound: CC1=NN=C(O1)C2=NN=C(C=C2)N3CCC(CC3)OC4=C(C=CC(=C4)F)Cl + N=C(N)NC(=N)NCCc1ccccc1 [Phenformin] (partner 250 µM)
In short: as §1

Tosedostat + Tozasertib = compound: CC(C)C[C@@H](C(=O)N[C@H](C(=O)OC1CCCC1)c1ccccc1)[C@H](O)C(=O)NO [Tosedostat] + Cc1cc(Nc2cc(N3CCN(C)CC3)nc(Sc3ccc(NC(=O)C4CC4)cc3)n2)n[nH]1 [Tozasertib] (partner 0.1 µM)
In short: as §1

Tosedostat + Pemetrexed = compound: CC(C)C[C@@H](C(=O)N[C@H](C(=O)OC1CCCC1)c1ccccc1)[C@H](O)C(=O)NO [Tosedostat] + Nc1nc2[nH]cc(CCc3ccc(C(=O)N[C@@H](CCC(=O)O)C(=O)O)cc3)c2c(=O)[nH]1 [Pemetrexed] (partner 0.2 µM)
In short: as §1

Cell Line	relative viability (Tosedostat + AZD7762; first compound 0.02 µM)	relative viability (Tosedostat + AZD7762; first compound 0.06325 µM)	relative viability (Tosedostat + AZD7762; first compound 0.2 µM)	relative viability (Tosedostat + AZD7762; first compound 0.6325 µM)	relative viability (Tosedostat + AZD7762; first compound 2 µM)	relative viability ([1]; first compound 0.253 µM)	relative viability ([1]; first compound 0.8 µM)	relative viability ([1]; first compound 2.53 µM)	relative viability ([1]; first compound 8 µM)	relative viability (Tosedostat + Tozasertib; first compound 0.02 µM)	relative viability (Tosedostat + Tozasertib; first compound 0.06325 µM)	relative viability (Tosedostat + Tozasertib; first compound 0.2 µM)	relative viability (Tosedostat + Tozasertib; first compound 0.6325 µM)	relative viability (Tosedostat + Tozasertib; first compound 2 µM)	relative viability (Tosedostat + Pemetrexed; first compound 0.02 µM)	relative viability (Tosedostat + Pemetrexed; first compound 0.06325 µM)	relative viability (Tosedostat + Pemetrexed; first compound 0.2 µM)	relative viability (Tosedostat + Pemetrexed; first compound 0.6325 µM)	relative viability (Tosedostat + Pemetrexed; first compound 2 µM)
LU99A	0.369	0.333	0.374	0.293	0.297	0.885	0.822	0.821	0.71	0.253	0.284	0.277	0.242	0.225	0.172	0.165	0.195	0.212	0.191
LXF-289	1.17	1.08	1.19	1.05	1.08	0.509	0.393	0.504	0.465	0.198	0.167	0.169	0.122	0.0708	0.949	0.978	1.05	0.944	1.07
NCI-H23	0.31	0.248	0.232	0.202	0.253	0.829		0.729	0.709	0.491	0.347	0.41	0.26	0.294	0.745	0.702	0.691	0.725	0.361
NCI-H322M	0.648	0.56	0.641	0.613	0.567	0.759	0.742	0.846	0.731	0.461	0.468	0.434	0.419	0.341	0.61	0.628	0.596	0.666	0.652
NCI-H358	0.71	0.471	0.434	0.317	0.34	0.369	0.304	0.359	0.305	0.0914	0.1	0.0977	0.0822	0.0804	0.173	0.2	0.164	0.143	0.161
NCI-H441	1.39	1.09	1.13	0.85	0.718	0.715	0.498	0.699	0.619	0.911	0.567	0.561	0.542	0.423	0.228	0.246	0.275	0.266	0.309
NCI-H460	0.728	0.66	0.709	0.665	0.705	0.298	0.309	0.291	0.258	0.313	0.502	0.687	0.325	0.264	0.0658	0.062	0.0697	0.0606	0.0547
NCI-H522	0.901	0.907	0.953	0.827	0.738	0.679	0.632	0.855	0.526	0.561	0.566	0.533	0.509	0.45	1.14	1.02	1.06	1.06	0.979
NCI-H596	1.04	1.21	1.13	1.17	1.2	0.648	0.611	0.697	0.525	0.893	0.875	0.791	0.934	0.729	0.468	0.488	0.515	0.497	0.45
NCI-H647	0.664	0.454	0.368	0.366	0.398	0.441	0.446	0.408	0.2	0.37	0.262	0.339	0.175	0.367	0.178	0.163	0.167	0.196	0.179
NCI-H650	1.32	1.05	0.904	0.851	0.725	0.478	0.444	0.43	0.414	0.839	0.78	0.684	0.602	0.471	1.01	0.846	0.895	0.873	0.804
NCI-H838	0.999	0.928	0.893	0.973	1	0.588	0.434	0.515	0.504	0.273	0.262	0.305	0.283	0.255	0.275	0.254	0.255	0.299	0.29
NCI-H1355	0.698	0.703	0.72	0.606	0.621	0.405	0.37	0.446	0.411	0.63	0.55	0.584	0.533	0.442	1.03	1.05	1.14	0.952	0.916
NCI-H1395	0.429	0.42	0.414	0.398	0.38	0.453	0.398	0.439	0.429	0.757	0.748	0.768	0.678	0.675	1.04	1.04	0.848	0.927	0.725
NCI-H1437	1.14	1.15	1.14	1.08	0.904	0.209	0.236	0.288	0.252	0.403	0.395	0.389	0.337	0.166	0.297	0.353	0.335	0.354	0.391
NCI-H1651	0.458	0.486	0.588	0.439	0.384	0.367	0.487	0.368	0.325	0.726	0.645	0.637	0.678	0.554	0.586	0.637	0.555	0.711	0.623
NCI-H1666	0.878	0.919	1.02	0.912	0.907	0.509	0.57	0.555	0.584	0.639	0.711	0.541	0.726	0.623	0.888	0.831	0.88	0.991	0.963

Source: the supplement of paper PMC10307832
